Results on twelve compounds are retold here after US8822517B2, “Arylosulfonamides for the treatment of CNS diseases” (Adamed SP. Z O.O., priority 2010, dated 2014).

The structures appear in SMILES notation.

One experiment has as its system sigma σ receptor. Description: Binding assay σ (non-selective), [3H]DTG, rat cerebral cortex. Particulars: percent inhibition of control specific binding; compounds tested at 1×10^−6 M. In short, it runs like this: (§1)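 Single-concentration test (1×10^−6 M). Total and non-specific binding were counted by scintillation, and their difference defines specific binding.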

The next experiment deals with adrenergic α1 receptor. Briefly: Binding assay α1 (non-selective), [3H]prazosin, rat cerebral cortex. Particulars: percent inhibition of control specific binding; compounds tested at 1×10^−6 M. In short, it runs like this:
as §1

Experiment [1] has as its target T1, serotoninergic receptor 5-HT2C (Homo sapiens, UniProt P28335).
T1 construct: expressed in transfected cells; host or cells: HEK-293 cells
T1 sequence (P28335 33-458): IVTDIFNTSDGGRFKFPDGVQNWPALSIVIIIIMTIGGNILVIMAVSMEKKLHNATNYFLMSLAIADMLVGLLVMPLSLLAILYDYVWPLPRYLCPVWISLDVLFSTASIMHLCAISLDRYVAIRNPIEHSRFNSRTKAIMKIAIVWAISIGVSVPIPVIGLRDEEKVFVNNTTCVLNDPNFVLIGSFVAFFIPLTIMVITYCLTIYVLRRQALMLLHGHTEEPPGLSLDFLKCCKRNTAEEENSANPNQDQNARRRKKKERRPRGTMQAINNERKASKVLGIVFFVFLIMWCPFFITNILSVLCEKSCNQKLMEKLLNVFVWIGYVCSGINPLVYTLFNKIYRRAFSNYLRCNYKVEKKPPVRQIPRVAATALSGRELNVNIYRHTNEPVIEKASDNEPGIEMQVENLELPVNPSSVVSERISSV
Briefly: Binding assay 5-HT2C (h), [3H]mesulergine, HEK-293 cells. The following applies: read-out: 5-HT2C [%]. In short, it runs like this: as §1

A further experiment addresses dopaminergic D3 receptor (Homo sapiens, UniProt P35462). Description: Binding assay D3 (h), [3H]methyl-spiperone, CHO cells. The following applies: read-out: D3 [%]. Set-up: expressed in transfected cells; host or cells: CHO cells. The essentials: as §1
For experiment [2], the target named is serotoninergic 5-HT6 receptor (Homo sapiens, UniProt P50406). Briefly: Binding assay 5-HT6 (h), [3H]LSD, CHO cells. Also on record: expressed in transfected cells; host or cells: CHO cells. The following applies: read-out: 5-HT6. The essentials: as §1
Sequence of serotoninergic 5-HT6 receptor (P50406 whole entry): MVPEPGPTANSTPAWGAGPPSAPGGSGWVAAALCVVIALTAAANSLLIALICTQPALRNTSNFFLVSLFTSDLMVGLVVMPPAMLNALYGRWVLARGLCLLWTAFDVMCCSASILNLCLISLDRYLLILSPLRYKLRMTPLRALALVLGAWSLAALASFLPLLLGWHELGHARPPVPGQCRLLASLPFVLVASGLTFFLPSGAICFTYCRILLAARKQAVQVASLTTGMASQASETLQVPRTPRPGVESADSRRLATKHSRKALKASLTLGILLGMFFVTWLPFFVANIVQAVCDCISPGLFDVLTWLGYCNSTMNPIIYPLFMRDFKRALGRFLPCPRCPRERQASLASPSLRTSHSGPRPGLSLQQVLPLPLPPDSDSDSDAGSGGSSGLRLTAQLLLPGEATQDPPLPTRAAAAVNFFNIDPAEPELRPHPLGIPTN
The target in experiment [3] is serotoninergic 5-HT7 receptor (Homo sapiens, UniProt P34969). Briefly: Binding assay 5-HT7 (h), [3H]LSD, CHO cells. Also on record: expressed in transfected cells; host or cells: CHO cells. Particulars: read-out: 5-HT7. The essentials:
as §1

Experiment [4] deals with T2, serotoninergic 5-HT1A receptor (Homo sapiens, UniProt P08908).
T2 sequence (P08908 1-422): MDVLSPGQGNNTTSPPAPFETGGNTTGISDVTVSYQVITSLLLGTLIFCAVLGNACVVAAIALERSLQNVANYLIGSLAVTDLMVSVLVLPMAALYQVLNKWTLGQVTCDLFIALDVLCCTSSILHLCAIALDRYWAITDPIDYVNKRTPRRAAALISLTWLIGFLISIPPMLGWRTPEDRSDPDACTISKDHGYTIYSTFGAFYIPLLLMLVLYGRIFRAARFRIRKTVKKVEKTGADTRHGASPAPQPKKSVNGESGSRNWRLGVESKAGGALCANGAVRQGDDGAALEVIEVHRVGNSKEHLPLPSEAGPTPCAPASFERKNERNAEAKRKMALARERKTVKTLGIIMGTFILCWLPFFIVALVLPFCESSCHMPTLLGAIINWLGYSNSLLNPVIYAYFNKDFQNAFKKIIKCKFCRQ
Briefly: Binding assay 5-HT1A (h), [3H]8-OH-DPAT, HEK-293 cells. Set-up: expressed in transfected cells; host or cells: HEK-293 cells. The following applies: read-out: 5-HT1A. The essentials:
as §1

For experiment [5], the target named is histaminergic H1 receptor (Homo sapiens, UniProt P35367). Description: Binding assay H1 (h), [3H]pyrilamine, HEK-293 cells. Also on record: expressed in transfected cells; host or cells: HEK-293 cells. The following applies: read-out: H1 [%]. In short, it runs like this: as §1
Sequence of histaminergic H1 receptor (P35367 whole entry): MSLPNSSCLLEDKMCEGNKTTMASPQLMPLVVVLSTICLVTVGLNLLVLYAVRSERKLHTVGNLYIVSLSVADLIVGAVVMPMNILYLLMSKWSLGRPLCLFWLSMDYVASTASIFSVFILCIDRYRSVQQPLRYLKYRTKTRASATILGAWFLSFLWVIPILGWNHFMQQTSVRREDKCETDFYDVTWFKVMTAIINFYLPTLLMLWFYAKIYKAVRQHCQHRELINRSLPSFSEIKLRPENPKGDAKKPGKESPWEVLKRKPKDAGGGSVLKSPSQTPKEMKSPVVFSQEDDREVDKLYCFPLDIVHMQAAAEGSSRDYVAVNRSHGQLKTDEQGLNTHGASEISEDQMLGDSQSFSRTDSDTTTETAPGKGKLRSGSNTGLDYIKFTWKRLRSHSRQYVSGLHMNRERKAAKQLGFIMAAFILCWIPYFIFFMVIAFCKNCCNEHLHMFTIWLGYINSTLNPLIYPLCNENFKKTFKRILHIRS
The target in experiment [6] is T2, serotoninergic 5-HT1A receptor. Briefly: Cellular functional assay, serotoninergic 5-HT1A receptor (agonism/antagonism). The format is cell-based. The procedure: The compounds were tested at the concentration of 1×10^−6M.
In the Tables ag refers to agonism, and antag to antagonism).

Sequence of serotoninergic 5-HT7 receptor (P34969 whole entry): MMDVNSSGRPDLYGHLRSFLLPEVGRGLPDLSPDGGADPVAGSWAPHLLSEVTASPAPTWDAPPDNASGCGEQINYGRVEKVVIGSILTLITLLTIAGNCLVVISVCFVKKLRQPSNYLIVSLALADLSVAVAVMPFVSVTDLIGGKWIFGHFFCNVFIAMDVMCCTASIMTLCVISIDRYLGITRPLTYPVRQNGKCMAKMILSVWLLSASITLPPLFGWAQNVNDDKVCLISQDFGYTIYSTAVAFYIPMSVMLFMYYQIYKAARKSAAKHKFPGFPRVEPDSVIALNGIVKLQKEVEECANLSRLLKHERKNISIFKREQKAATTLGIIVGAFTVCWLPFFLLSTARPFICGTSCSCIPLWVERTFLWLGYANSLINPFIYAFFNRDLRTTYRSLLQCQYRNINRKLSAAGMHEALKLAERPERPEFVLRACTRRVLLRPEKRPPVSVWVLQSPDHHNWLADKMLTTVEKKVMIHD
Sequence of dopaminergic D3 receptor (P35462 whole entry): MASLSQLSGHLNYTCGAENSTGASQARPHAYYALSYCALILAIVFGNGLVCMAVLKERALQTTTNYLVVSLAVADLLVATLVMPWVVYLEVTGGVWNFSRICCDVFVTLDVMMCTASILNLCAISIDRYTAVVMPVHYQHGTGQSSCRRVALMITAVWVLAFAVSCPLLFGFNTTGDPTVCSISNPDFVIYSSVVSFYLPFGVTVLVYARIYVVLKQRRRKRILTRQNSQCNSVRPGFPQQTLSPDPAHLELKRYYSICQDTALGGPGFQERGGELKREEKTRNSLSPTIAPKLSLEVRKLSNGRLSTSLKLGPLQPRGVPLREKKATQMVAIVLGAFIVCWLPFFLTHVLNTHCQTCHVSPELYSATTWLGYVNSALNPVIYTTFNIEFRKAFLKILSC

On to `O=S(=O)(NCCCCN1CCC(c2noc3cc(F)ccc23)CC1)c1cc2ccc(Cl)cc2s1` [Compound 314, 6-Chloro-N-[4-[4-(6-fluoro-1,2-benzoxazol-3-yl)piperidin-1-yl]butyl]benzothiophene-2-sulphonamide], for which the “σ [%]” value in the experiment on sigma σ receptor was determined as 49%. Besides, the “α1 [%]” value with adrenergic α1 receptor turned out to be 100%. The inhibition at 1 µM in experiment [1] came out at 85%; at dopaminergic D3 receptor it was 100%; in experiment [2] it was 100%; in [3], 99%; in [4], 75%; in experiment [5], 93%.

For the compound `O=c1[nH]c2cccc(N3CCN(CCCNS(=O)(=O)c4ccc5ccccc5c4)CC3)c2[nH]1` [Compound 424, N-[3-[4-(2-oxo-1,3-dihydrobenzimidazol-4-yl)piperazin-1-yl]propyl]naphthalene-2-sulphonamide], the “σ [%]” value in the experiment with sigma σ receptor is given as −3%. Besides, the “α1 [%]” value in the experiment with adrenergic α1 receptor turned out to be 93%. The inhibition at 1 µM was determined as 8% in experiment [1]; 75% in [6] (CHO, read-out: 5-HT1A-antag. [%]); 98% on dopaminergic D3 receptor; 69% in experiment [2]; 95% in experiment [3]; 99% in [4]. For the same compound, the inhibition at 1 µM in experiment [5] is 28%. Besides, the activation at 1 µM in [6] (agonist effect, percent of control specific agonist response (100 nM 8-OH-DPAT for control), 1×10^−6 M, 5-HT1A (h), CHO cells, read-out: 5-HT1A-ag [%]) was 23%.

Regarding `O=S(=O)(NCCCCN1CCN(c2noc3ccccc23)CC1)c1ccc(-c2ccccc2)cc1` [Compound 283, N-[4-[4-(1,2-Benzoxazol-3-yl)piperazin-1-yl]butyl]-4-phenylbenzenesulphonamide], the “σ [%]” value in the experiment on sigma σ receptor was determined as 34%. Further, the “α1 [%]” value in the experiment with adrenergic α1 receptor turned out to be 92%. The inhibition at 1 µM in experiment [1] came to 80%; on dopaminergic D3 receptor, 101%; in [2], 96%; in experiment [3] it was 99%; in experiment [4], 89%; in experiment [5] it was 96%.

Turning to `O=S(=O)(NCCCCN1CCN(c2noc3ccccc23)CC1)c1c[nH]c2ncccc12` [Compound 89, N-[4-[4-(1,2-Benzoxazol-3-yl)piperazin-1-yl]butyl]-1H-pyrrolo[2,3-b]pyridine-3-sulphonamide], the “σ [%]” value in the experiment with sigma σ receptor is given as −1%. For the same compound, the “α1 [%]” value in the experiment on adrenergic α1 receptor is recorded as 98%. Moreover, the inhibition at 1 µM in experiment [1] was 34%; at dopaminergic D3 receptor, 95%; in experiment [2] it was 94%; in [3], 98%; in [4], 71%; in [5] it was 85%.

Take `O=S(=O)(NCCCCN1CCN(c2noc3ccccc23)CC1)c1cccc2ccccc12` [Compound 13, N-(4-(4-(1,2-Benzoxazol-3-yl)piperazin-1-yl)butyl)naphthalene-1-sulphonamide]: the “σ [%]” value in the experiment with sigma σ receptor turned out to be 87%. In addition, the “α1 [%]” value with adrenergic α1 receptor turned out to be 102%. Further, the inhibition at 1 µM in [1] stood at 34%; on dopaminergic D3 receptor it was 92%; in experiment [2] it was 96%; in experiment [3] it was 100%; in [4], 89%; in experiment [5] it was 84%.

Consider `O=S(=O)(NCCCCN1CCC(c2noc3cc(F)ccc23)CC1)c1cc2ccccc2s1` [Compound 312, N-[4-[4-(6-Fluoro-1,2-benzoxazol-3-yl)piperidin-1-yl]butyl]benzothiophene-2-sulphonamide], for which the “σ [%]” value in the experiment with sigma σ receptor worked out at 71%. Besides, the “α1 [%]” value in the experiment on adrenergic α1 receptor is recorded as 100%. Also, the inhibition at 1 µM in [1] came to 80%; on dopaminergic D3 receptor, 97%; in experiment [2] it was 98%; in experiment [3] it was 97%; in experiment [4], 86%; in experiment [5], 86%.

On to `O=S(=O)(NCCCCN1CCC(c2noc3cc(F)ccc23)CC1)c1ccc(Br)cc1` [Compound 298, 4-Bromo-N-[4-[4-(6-fluoro-1,2-benzoxazol-3-yl)piperidin-1-yl]butyl]benzenesulphonamide], for which the “σ [%]” value with sigma σ receptor came out at 68%. Besides, the “α1 [%]” value in the experiment with adrenergic α1 receptor came out at 103%. In addition, the inhibition at 1 µM in experiment [1] was 52%; at dopaminergic D3 receptor it was 98%; in experiment [2], 98%; in [3], 100%; in experiment [4], 67%; in experiment [5], 90%.

For `O=S(=O)(NCCCCN1CCN(c2noc3ccccc23)CC1)c1ccc2cc(Cl)ccc2c1` [Compound 79, N-[4-[4-(1,2-Benzoxazol-3-yl)piperazin-1-yl]butyl]-6-chloro-naphthalene-2-sulphonamide], in the experiment on sigma σ receptor, the “σ [%]” value was determined as 37%. For the same compound, the “α1 [%]” value with adrenergic α1 receptor amounted to 88%. The inhibition at 1 µM in experiment [1] turned out to be 72%; on dopaminergic D3 receptor it was 96%; in [2], 97%; in experiment [3], 97%; in [4], 84%; in [5], 96%.

For `O=S(=O)(NCCCN1CCC(c2noc3cc(F)ccc23)CC1)c1ccc2cc(Cl)ccc2c1` [Compound 98, 6-Chloro-N-[3-[4-(6-fluoro-1,2-benzoxazol-3-yl)piperidin-1-yl]propyl]naphthalene-2-sulphonamide], the inhibition at 1 µM was determined as 91% in [1]; 104% at dopaminergic D3 receptor; 98% in experiment [2]; 98% in experiment [3]; 80% in experiment [4]; 100% in [5].

Turning to `O=S(=O)(NCCCN1CCC(c2noc3cc(F)ccc23)CC1)c1ccc2cn[nH]c2c1` [Compound 352, N-[3-[4-(6-Fluoro-1,2-benzoxazol-3-yl)piperidin-1-yl]propyl]-1H-indazole-6-sulphonamide], in the experiment with sigma σ receptor, the “σ [%]” value came out at 76%. Moreover, the “α1 [%]” value in the experiment with adrenergic α1 receptor was 99%. Besides, the inhibition at 1 µM in experiment [1] was 78%; on dopaminergic D3 receptor, 97%; in [2], 95%; in experiment [3], 100%; in experiment [4] it was 89%; in [5], 97%.

For the compound `O=S(=O)(NCCCCN1CCC(c2noc3cc(F)ccc23)CC1)c1csc2ccccc12` [Compound 313, N-[4-[4-(6-Fluoro-1,2-benzoxazol-3-yl)piperidin-1-yl]butyl]benzothiophene-3-sulphonamide], the “σ [%]” value with sigma σ receptor is listed as 83%. Also, the “α1 [%]” value in the experiment with adrenergic α1 receptor is given as 100%. Also, the inhibition at 1 µM in experiment [1] was found to be 59%; on dopaminergic D3 receptor, 99%; in experiment [2], 100%; in experiment [3], 100%; in experiment [4], 72%; in experiment [5], 90%.

Take `O=S(=O)(NCCCCN1CCN(c2noc3ccccc23)CC1)c1cc2ccc(Cl)cc2s1` [Compound 288, N-[4-[4-(1,2-Benzoxazol-3-yl)piperazin-1-yl]butyl]-6-chlorobenzothiophene-2-sulphonamide]: the “σ [%]” value in the experiment with sigma σ receptor is 45%. Moreover, the “α1 [%]” value in the experiment with adrenergic α1 receptor worked out at 94%. Also, the inhibition at 1 µM was found to be 32% in experiment [1]; 102% on dopaminergic D3 receptor; 98% in [2]; 100% in [3]; 86% in experiment [4]; 94% in experiment [5].
